Results as given in ChEMBL document CHEMBL1759842, “Discovery of non-glucoside SGLT2 inhibitors” (Bioorg Med Chem Lett, 2011).

Key:
Format in all cases: cell-based
SGLT1 protein = biological target: T1, SGLT1 protein (Mus musculus, UniProt Q9QXI6); experiment: Inhibition of mouse SGLT1 expressed in CHO cells assessed as inhibition of [14C]-alpha-methyl-D-glucopyranoside transport after 60 mins by scintillation counting
T1 sequence (Q9QXI6 whole entry): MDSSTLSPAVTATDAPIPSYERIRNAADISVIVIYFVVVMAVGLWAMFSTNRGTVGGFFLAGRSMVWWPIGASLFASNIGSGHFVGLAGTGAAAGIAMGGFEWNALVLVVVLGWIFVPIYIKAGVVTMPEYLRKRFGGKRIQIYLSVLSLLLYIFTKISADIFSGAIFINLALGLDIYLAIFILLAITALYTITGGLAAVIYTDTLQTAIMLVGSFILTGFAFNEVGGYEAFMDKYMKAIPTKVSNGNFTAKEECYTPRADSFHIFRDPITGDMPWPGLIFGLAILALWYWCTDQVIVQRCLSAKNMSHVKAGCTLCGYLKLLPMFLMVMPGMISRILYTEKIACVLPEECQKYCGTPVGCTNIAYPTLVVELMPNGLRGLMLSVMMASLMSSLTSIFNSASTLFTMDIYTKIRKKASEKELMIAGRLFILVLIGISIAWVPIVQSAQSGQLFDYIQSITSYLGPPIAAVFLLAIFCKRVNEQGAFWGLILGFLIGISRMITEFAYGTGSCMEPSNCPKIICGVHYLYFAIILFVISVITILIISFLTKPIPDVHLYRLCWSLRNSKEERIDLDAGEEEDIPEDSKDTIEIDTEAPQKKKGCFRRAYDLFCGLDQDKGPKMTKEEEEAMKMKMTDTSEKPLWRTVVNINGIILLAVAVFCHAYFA

[1] = biological target: T2, Sodium/glucose cotransporter 1 (Rattus norvegicus, UniProt P53790); experiment: Inhibition of rat SGLT1 expressed in CHO cells assessed as inhibition of [14C]-alpha-methyl-D-glucopyranoside transport after 60 mins by scintillation counting
T2 sequence (P53790 whole entry): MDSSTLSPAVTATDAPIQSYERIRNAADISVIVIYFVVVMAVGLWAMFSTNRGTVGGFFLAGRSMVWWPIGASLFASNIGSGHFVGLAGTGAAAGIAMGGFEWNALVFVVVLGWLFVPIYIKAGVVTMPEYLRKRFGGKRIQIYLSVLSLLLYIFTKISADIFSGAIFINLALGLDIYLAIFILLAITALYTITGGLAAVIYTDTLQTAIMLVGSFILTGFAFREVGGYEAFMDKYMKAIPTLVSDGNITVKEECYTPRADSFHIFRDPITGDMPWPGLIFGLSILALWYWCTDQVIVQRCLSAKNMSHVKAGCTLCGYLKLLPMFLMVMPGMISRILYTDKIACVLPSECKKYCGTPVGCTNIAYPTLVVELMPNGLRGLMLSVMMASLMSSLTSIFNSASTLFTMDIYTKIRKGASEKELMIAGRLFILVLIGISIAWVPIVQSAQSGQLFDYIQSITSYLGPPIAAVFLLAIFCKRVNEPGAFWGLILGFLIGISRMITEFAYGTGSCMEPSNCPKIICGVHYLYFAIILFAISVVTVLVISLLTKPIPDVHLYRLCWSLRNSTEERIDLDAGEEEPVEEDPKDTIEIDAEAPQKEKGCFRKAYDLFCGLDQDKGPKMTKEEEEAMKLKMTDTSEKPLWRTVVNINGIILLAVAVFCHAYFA

[2] = biological target: T3, Sodium/glucose cotransporter 1 (Homo sapiens, UniProt P13866); experiment: Inhibition of human SGLT1 expressed in CHO cells assessed as inhibition of [14C]-alpha-methyl-D-glucopyranoside transport after 60 mins by scintillation counting
T3 sequence (P13866 whole entry): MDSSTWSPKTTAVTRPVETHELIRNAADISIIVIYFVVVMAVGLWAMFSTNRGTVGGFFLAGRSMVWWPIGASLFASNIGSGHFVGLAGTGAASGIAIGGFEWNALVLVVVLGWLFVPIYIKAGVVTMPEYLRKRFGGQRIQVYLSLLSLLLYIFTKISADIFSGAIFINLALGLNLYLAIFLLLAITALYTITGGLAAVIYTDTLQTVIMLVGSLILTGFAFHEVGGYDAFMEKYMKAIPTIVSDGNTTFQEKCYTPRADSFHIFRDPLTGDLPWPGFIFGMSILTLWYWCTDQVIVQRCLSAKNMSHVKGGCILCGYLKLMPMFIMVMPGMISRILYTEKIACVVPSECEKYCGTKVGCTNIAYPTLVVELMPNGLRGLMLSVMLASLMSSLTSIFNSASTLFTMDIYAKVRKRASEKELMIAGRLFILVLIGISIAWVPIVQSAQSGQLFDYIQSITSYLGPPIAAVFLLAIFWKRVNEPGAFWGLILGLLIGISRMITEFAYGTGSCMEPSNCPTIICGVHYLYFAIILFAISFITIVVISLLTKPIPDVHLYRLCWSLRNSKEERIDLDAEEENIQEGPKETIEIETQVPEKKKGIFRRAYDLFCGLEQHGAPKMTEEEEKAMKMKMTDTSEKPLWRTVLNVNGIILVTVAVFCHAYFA

[3] = biological target: T4, Sodium/glucose cotransporter 2 (Mus musculus, UniProt Q923I7); experiment: Inhibition of mouse SGLT2 expressed in CHO cells assessed as inhibition of [14C]-alpha-methyl-D-glucopyranoside transport after 60 mins by scintillation counting
T4 sequence (Q923I7 whole entry): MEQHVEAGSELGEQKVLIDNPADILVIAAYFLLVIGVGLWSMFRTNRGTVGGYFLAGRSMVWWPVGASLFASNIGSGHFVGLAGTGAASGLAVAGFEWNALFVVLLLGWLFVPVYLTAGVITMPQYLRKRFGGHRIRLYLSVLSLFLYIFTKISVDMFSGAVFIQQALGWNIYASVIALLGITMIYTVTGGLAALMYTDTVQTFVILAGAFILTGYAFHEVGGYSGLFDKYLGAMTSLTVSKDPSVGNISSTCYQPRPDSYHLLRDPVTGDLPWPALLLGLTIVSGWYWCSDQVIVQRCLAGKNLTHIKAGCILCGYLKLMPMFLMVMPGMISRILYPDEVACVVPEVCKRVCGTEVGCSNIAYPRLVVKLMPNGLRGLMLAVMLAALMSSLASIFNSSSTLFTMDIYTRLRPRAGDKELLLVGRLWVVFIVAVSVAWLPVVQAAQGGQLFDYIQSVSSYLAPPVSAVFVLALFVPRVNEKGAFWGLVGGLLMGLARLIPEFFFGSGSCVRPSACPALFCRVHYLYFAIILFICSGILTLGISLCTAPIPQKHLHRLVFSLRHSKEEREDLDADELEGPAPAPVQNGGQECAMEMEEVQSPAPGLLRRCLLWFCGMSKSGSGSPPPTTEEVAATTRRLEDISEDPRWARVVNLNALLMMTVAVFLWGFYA

Cn1c(CN2C(=O)CSc3ccc(C(F)(F)F)cc32)nnc1SCc1ccc(Cl)cc1
IC50 (SGLT1 protein): 3 µM | IC50 [1]: 9 µM | IC50 [2]: 7 µM | IC50 [3]: 1.2 µM
